For one test, the target named is p300 (Homo sapiens, UniProt Q09472). The test can be described thus: cell-free H3K27 acetylation, immunoblot. In kind it is biochemical. (In western blotting, separated proteins are transferred to a membrane and probed.)
In the next test the target is CREBBP (Homo sapiens, UniProt Q92793). Put plainly: cell-free H3K27 acetylation, immunoblot. Format: biochemical.
The target of a further test is T1, p300 bromodomain (Homo sapiens, UniProt Q09472).
T1 sequence (Q09472 1049-1156 limits assumed): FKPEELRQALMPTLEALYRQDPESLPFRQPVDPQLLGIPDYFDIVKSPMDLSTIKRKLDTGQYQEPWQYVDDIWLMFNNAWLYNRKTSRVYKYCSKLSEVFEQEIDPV
The test can be described thus: SPR, single-cycle kinetics, NTA chip. In kind it is binding. For orientation: In SPR one partner is held on a chip, and binding of the other changes the refractive index at the surface.

By EC50 is commonly meant the concentration that produces a half-maximal response. For orientation: Kd means the constant that tells how readily two partners part at equilibrium. Read a low Kd as a tighter complex.

p300, sequence (Q09472 2-2414): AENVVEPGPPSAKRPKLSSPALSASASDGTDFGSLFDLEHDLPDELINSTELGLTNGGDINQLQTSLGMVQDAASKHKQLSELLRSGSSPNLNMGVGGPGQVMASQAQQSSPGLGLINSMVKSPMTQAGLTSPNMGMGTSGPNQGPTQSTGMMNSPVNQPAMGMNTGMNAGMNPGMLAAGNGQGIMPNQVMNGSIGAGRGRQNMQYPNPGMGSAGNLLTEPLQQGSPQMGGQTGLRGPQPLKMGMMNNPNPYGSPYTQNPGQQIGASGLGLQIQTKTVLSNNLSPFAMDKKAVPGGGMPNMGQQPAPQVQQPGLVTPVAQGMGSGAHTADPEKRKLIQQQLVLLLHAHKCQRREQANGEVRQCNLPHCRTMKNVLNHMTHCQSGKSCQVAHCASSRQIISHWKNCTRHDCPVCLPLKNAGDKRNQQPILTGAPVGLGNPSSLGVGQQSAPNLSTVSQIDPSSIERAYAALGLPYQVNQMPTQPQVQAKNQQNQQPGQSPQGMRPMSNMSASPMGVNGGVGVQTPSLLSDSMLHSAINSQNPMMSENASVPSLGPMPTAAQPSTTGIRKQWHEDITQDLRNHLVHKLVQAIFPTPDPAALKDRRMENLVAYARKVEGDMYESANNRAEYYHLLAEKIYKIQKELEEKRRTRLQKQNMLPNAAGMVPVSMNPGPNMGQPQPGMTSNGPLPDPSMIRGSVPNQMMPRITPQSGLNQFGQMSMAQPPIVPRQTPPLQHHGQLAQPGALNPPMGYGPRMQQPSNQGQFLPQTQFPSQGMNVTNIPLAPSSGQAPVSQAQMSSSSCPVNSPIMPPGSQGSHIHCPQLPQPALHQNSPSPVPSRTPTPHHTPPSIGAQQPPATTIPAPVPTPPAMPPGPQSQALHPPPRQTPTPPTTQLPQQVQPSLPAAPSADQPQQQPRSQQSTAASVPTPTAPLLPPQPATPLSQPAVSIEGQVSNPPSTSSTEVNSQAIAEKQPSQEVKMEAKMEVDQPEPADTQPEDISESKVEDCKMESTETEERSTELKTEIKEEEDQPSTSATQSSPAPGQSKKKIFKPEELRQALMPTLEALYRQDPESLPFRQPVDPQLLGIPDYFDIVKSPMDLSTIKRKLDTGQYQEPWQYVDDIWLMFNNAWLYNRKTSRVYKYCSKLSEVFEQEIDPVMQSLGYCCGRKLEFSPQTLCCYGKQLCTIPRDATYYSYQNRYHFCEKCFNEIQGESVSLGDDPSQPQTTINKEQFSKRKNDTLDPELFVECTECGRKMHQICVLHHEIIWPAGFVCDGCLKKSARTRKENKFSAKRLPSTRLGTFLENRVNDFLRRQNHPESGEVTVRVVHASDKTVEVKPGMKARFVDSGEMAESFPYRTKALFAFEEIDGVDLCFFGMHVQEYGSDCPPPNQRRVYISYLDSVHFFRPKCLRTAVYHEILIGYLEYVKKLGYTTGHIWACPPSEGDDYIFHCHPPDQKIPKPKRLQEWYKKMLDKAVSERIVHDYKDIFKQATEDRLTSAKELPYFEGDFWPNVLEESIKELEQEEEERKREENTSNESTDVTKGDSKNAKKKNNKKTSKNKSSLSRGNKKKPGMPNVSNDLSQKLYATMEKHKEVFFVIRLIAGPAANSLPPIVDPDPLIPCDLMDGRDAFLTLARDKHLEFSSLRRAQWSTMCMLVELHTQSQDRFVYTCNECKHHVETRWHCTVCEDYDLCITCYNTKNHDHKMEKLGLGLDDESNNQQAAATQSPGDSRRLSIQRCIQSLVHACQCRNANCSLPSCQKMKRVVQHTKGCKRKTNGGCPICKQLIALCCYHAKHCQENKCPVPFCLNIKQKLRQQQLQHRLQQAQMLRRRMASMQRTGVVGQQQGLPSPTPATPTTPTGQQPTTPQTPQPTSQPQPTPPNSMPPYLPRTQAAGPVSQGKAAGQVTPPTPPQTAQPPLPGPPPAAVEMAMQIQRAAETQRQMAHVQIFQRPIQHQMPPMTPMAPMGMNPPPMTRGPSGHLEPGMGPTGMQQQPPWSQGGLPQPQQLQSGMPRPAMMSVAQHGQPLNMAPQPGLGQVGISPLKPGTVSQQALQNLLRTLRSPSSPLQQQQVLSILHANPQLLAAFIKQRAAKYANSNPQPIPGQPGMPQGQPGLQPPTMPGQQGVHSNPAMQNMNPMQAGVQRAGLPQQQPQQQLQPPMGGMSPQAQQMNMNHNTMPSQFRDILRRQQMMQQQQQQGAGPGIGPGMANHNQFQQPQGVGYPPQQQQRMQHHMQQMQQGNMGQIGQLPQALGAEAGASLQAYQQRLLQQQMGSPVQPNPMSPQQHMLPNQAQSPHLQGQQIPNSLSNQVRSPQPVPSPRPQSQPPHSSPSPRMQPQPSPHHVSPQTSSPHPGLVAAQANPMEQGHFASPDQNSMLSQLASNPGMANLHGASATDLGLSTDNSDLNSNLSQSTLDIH
CREBBP, sequence (Q92793 2-2442): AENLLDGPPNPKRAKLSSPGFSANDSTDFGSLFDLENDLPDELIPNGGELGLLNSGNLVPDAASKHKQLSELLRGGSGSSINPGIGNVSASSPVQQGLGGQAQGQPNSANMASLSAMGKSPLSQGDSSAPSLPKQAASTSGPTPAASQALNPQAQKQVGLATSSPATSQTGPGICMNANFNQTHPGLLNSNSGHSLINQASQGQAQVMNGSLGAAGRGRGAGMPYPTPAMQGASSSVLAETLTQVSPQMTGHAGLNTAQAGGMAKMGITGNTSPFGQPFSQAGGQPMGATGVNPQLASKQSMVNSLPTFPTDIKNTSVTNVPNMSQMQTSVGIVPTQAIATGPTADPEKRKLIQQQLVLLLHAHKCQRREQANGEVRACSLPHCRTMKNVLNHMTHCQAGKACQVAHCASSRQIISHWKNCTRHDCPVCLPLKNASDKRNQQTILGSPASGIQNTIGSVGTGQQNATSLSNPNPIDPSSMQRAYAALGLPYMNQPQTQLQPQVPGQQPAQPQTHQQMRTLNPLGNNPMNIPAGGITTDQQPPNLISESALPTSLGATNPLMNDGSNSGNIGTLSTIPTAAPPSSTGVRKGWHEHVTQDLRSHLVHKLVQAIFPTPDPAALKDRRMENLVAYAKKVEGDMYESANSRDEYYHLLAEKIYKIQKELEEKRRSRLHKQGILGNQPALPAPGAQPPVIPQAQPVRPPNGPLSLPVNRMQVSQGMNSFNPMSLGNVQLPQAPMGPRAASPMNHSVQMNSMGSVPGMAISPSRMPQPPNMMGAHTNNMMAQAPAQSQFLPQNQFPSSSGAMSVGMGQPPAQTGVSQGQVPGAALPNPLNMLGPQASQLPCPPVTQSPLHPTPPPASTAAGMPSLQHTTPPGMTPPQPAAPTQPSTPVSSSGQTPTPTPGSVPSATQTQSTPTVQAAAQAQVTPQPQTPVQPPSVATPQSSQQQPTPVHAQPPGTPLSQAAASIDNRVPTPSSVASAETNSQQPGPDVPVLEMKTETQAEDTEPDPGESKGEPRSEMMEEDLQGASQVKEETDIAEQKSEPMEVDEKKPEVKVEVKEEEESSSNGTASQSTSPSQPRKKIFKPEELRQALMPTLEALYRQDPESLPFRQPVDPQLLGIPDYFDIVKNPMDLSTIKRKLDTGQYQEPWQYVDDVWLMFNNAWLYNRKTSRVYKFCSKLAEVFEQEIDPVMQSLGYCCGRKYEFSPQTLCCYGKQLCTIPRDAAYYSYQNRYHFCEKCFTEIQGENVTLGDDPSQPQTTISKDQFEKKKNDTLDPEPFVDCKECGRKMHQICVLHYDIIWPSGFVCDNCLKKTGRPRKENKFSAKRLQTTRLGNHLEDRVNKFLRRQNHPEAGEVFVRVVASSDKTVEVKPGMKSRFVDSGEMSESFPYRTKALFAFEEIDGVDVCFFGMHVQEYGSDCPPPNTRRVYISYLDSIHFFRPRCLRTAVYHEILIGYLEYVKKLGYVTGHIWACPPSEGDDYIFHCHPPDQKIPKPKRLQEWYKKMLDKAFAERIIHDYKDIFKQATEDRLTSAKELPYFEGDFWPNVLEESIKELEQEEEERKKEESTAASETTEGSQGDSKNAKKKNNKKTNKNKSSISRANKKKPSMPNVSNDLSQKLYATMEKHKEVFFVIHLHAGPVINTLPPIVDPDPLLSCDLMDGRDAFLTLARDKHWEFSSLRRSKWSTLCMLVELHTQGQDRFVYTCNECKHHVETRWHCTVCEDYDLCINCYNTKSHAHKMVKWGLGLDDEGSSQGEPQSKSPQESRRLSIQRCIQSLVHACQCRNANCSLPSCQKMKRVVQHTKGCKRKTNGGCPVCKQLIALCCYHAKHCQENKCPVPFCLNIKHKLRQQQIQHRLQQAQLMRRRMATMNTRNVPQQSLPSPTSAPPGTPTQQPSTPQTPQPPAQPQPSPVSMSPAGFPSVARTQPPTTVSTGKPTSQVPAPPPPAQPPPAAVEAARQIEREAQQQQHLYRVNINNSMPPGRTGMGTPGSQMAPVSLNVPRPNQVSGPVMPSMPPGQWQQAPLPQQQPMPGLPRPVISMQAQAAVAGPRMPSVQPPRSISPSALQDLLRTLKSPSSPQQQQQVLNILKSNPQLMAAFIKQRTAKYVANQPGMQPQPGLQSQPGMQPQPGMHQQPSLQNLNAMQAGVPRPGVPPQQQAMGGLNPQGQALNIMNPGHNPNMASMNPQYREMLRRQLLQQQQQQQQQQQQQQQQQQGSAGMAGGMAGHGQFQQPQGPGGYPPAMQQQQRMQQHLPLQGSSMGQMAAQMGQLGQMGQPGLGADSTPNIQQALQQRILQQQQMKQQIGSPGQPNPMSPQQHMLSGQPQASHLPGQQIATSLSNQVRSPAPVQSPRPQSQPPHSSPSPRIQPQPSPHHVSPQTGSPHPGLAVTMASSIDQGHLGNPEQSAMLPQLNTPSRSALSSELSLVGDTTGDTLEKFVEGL

As to `CCOc1cccc(OCCN(C)C)c1C(=O)Nc1ccc(Cl)c(C(F)(F)F)c1` [YF2], the 50% effective concentration (EC50) is 4.32 µM on p300 and 15.8 µM on CREBBP. For the same molecule, on p300 bromodomain, binding was characterised by a dissociation constant (Kd) of 4.42 µM.
